Experimental data from BindingDB's records for doi:10.1074/jbc.M112.356576 (University of Adelaide, 2012).

Target: T1, Bifunctional ligase/repressor BirA (Staphylococcus aureus, UniProt A0A3A5LBF0)
T1 sequence (A0A3A5LBF0 whole entry): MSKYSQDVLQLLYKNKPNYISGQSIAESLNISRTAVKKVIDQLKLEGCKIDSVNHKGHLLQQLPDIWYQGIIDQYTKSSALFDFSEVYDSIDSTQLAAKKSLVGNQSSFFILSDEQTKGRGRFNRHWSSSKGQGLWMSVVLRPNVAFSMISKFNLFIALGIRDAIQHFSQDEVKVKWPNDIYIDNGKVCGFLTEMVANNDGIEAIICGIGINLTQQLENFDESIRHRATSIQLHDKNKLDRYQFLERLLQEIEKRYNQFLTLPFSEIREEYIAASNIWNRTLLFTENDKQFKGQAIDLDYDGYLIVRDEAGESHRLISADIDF
Test: Enzyme Inhibition Assay
From the text: In vitro enzyme inhibition using biotin protein ligase.

Question: How did the Ki turn out when `O=C1NC2CS[C@@H](CCCCCc3cn(CCCCOc4ccc5ccccc5c4)nn3)C2N1` (stereo partly drawn) [Biotin triazole, 13] was run?
Answer: 1170 nM

Question: `O=C1NC2CS[C@@H](CCCCCc3cn(CCCCOc4cccc5ccccc45)nn3)C2N1` (stereo partly drawn) [Biotin triazole, 12] was tested. Which Ki did it give?
Answer: > 10000 nM

Question: Which Ki does the source give for `Cc1ccc2oc(=O)n(CCCn3cc(COCCC[C@@H]4SCC5NC(=O)NC54)nn3)c2c1` (stereo partly drawn) [Biotin triazole, 16] here?
Answer: > 10000 nM

Question: `Cc1ccc2oc(=O)n(CCCCn3cc(CCCCC[C@@H]4SCC5NC(=O)NC54)nn3)c2c1` (stereo partly drawn) [Biotin triazole, 14] was tested. Which Ki did it give?
Answer: 90 nM

Question: How did the Ki turn out when `O=C1NC2CS[C@@H](CCCCCc3cn(CCCOc4ccc5ccccc5c4)nn3)C2N1` (stereo partly drawn) [Biotin triazole, 15] was run?
Answer: > 10000 nM

Question: With `Nc1ncnc2c1NCN2[C@@H]1O[C@H](Cn2cc(CCCCC[C@@H]3SCC4NC(=O)NC43)nn2)[C@@H](O)[C@H]1O` (stereo partly drawn) [Biotin triazole, 5] as the compound, how does the Ki read?
Answer: 1170 nM

Question: Which Ki does the source give for `O=C1NC2CS[C@@H](CCCCCc3cn(CCCCOc4ccccc4)nn3)C2N1` (stereo partly drawn) [Biotin triazole, 11] here?
Answer: > 10000 nM

Question: For `CC(C)(C)C(=O)OCCn1cc(CCCCC[C@@H]2SCC3NC(=O)NC32)nn1` (stereo partly drawn) [Biotin triazole, 10], which Ki is on record?
Answer: > 10000 nM
